Laboratory results from ChEMBL document CHEMBL5634077, “Recent advances in 1,2,3- and 1,2,4-triazole hybrids as antimicrobials and their SAR: A critical review” (2023).
≈ marks a conversion by molar mass, not a printed value.

Columns and labels:
Assay type in all cases: functional
[1] = system: Staphylococcus aureus; experiment: Antibacterial activity against Staphylococcus aureus assessed as diameter of inhibition zone at 100 microg/ml incubated for 18 to 24 hrs by disc-diffusion method; conditions: time 18-24 hrs, read-out: DIZ
[2] = system: Escherichia coli; experiment: Antibacterial activity against Escherichia coli assessed as diameter of inhibition zone at 100 microg/ml incubated for 18 to 24 hrs by disc-diffusion method; conditions: time 18-24 hrs, read-out: DIZ
[3] = system: Bacillus subtilis; experiment: Antibacterial activity against Bacillus subtilis assessed as diameter of inhibition zone at 100 microg/ml incubated for 18 to 24 hrs by disc-diffusion method; conditions: time 18-24 hrs, read-out: DIZ
[4] = system: Candida albicans; experiment: Antifungal activity against Candida albicans assessed as fungal growth inhibition
[5] = system: Aspergillus niger; experiment: Antifungal activity against Aspergillus niger assessed as fungal growth inhibition
[6] = system: Bacillus subtilis; experiment: Antibacterial activity against Bacillus subtilis MTTC 441 assessed as reduction in bacterial growth
[7] = system: Staphylococcus aureus; experiment: Antibacterial activity against Staphylococcus aureus MTCC 3160 assessed as reduction in bacterial growth
[8] = system: Staphylococcus aureus; experiment: Antibacterial activity against Staphylococcus aureus assessed as reduction in bacterial growth incubated for 24 hrs by broth microdilution method
[9] = system: Staphylococcus aureus; experiment: Antibacterial activity against Staphylococcus aureus assessed as diameter of inhibition zone incubated for 24 hrs by […]
[10] = system: Enterococcus faecium; experiment: Antibacterial activity against Enterococcus faecium ATCC 700221
[11] = system: Staphylococcus aureus; experiment: Antibacterial activity against methicillin-sensitive Staphylococcus aureus assessed as reduction in microbial growth incubated for 18 to 24 hrs by serial dilution method; conditions: time 18-24 hrs
[12] = system: Staphylococcus aureus; experiment: Antibacterial activity against methicillin-resistant Staphylococcus aureus assessed as reduction in microbial growth incubated for 18 to 24 hrs by serial dilution method; conditions: time 18-24 hrs
[13] = system: Staphylococcus aureus; experiment: Antibacterial activity against Staphylococcus aureus assessed as reduction in microbial growth incubated for 18 to 24 hrs by serial dilution method; conditions: time 18-24 hrs
[14] = system: Enterococcus faecalis; experiment: Antibacterial activity against Enterococcus faecalis assessed as bacterial growth inhibition
[15] = system: Staphylococcus epidermidis; experiment: Antibacterial activity against Methicillin-resistant Staphylococcus epidermidis assessed as bacterial growth inhibition
[16] = system: Staphylococcus epidermidis; experiment: Antibacterial activity against Methicillin-sensitive Staphylococcus epidermidis assessed as bacterial growth inhibition

`Sc1nncn1/N=C/c1cccc(Oc2ccccc2)c1` showed a zone of inhibition at 100 µg/mL [1] of 15 mm, a zone of inhibition at 100 µg/mL [2] of 15 mm and a zone of inhibition at 100 µg/mL [3] of 15 mm.

`Cc1ccc(NC(=O)Cn2cc(COc3ccc(C(=O)/C=C/c4ccc([N+](=O)[O-])cc4)cc3)nn2)cc1` showed an MIC [4] of 125 µM (≈ 62.2 µg/mL) and an MIC [5] of 125 µM (≈ 62.2 µg/mL).

For `O=C(Cn1cc(COc2cccc(/C=N/c3ccc(F)cc3)c2)nn1)Nc1ccc(Br)cc1`, the MIC [6] was 12 µM (≈ 6.1 µg/mL) and the MIC [7] was 6 µM (≈ 3.05 µg/mL).

With `O=c1cc(OCCn2cc(Cn3cc(Cl)c(=O)n(Cc4cn(CCOc5cc(=O)oc6ccccc56)nn4)c3=O)nn2)c2ccccc2o1` the MIC [8] was 7.23 µg/mL (≈ 10.6 µM) and the “diameter of the inhibition zone (DIZ)” value [9] was 26 mm.

`CN[C@H](CC(C)C)C(=O)N[C@H]1C(=O)N[C@@H](CC(N)=O)C(=O)N[C@H]2C(=O)N[C@H]3C(=O)N[C@H](C(=O)N[C@H](C(=O)O)c4cc(O)cc(O)c4-c4cc3ccc4O)[C@H](O)c3ccc(c(Cl)c3)Oc3cc2cc(c3O[C@@H]2O[C@H](CO)[C@@H](O)[C@H](O)[C@H]2O[C@H]2C[C@](C)(N)[C@H](O)[C@H](C)O2)Oc2ccc(cc2Cl)[C@H]1O` [VANCOMYCIN] showed an MIC [10] of over 88.3 µM, an MIC [11] of 0.25 µg/mL and an MIC [12] of 0.25 µg/mL. It also gave an MIC [13] of 0.25 µg/mL, an MIC [14] of 0.5 µg/mL (≈ 0.345 µM) and an MIC [15] of 0.5 µg/mL (≈ 0.345 µM). For the same compound, the MIC [16] was 0.5 µg/mL (≈ 0.345 µM).
